By IC50 is commonly meant the concentration that inhibits the measured activity by half. High values mean lower potency, low ones higher potency.

Sequence of IDO (P14902 whole entry): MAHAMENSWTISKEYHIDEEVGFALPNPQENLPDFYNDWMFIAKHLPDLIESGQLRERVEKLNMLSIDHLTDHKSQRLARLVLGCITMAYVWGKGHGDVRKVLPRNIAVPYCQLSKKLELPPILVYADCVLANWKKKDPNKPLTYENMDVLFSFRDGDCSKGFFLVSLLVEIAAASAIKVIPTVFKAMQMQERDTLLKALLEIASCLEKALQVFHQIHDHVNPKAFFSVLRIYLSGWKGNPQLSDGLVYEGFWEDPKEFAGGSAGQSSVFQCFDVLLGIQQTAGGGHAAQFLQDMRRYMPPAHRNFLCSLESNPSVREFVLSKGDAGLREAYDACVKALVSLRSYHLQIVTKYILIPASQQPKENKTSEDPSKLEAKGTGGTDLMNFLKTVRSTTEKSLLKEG

The assay has as its target IDO (Homo sapiens, UniProt P14902). Nature of the assay: LLE_IDO_ABS_DR (IDO assay).
As to `CC(C)CN(CC(C)C)c1ccc(-c2ccccc2-c2nnn[nH]2)cc1NC(=O)NCC1CC1` [Example 142, 1-(cyclopropylmethyl)-3-(4-(diisobutylamino)-2′-(1H-tetrazol-5-yl)biphenyl-3-yl)urea], the IC50 amounted to 0.95 µM.

`CC(C)CN(CC(C)C)c1ccc(-c2ccccc2-c2nnn[nH]2)cc1NC(=O)Nc1ccc2ncsc2c1` [Example 143, 1-(benzo[d]thiazol-6-yl)-3-(4-(diisobutylamino)-2′-(1H-tetrazol-5-yl)biphenyl-3-yl)urea] registered an IC50 of 0.15 µM.

Take `COC(=O)c1cnc(NC(=O)Nc2cc(-c3ccccc3-c3nnn[nH]3)ccc2N(CC(C)C)CC(C)C)s1` [Example 144, methyl 2-(3-(4-(diisobutylamino)-2′-(1H-tetrazol-5-yl)biphenyl-3-yl)ureido)thiazole-5-carboxylate]: inhibition was half-maximal at 0.01 µM (IC50).

The compound `CC(C)CN(CC(C)C)c1ccc(-c2ccccc2-c2nnn[nH]2)cc1NC(=O)Nc1nncs1` [Example 145, 1-(4-(diisobutylamino)-2′-(1H-tetrazol-5-yl)biphenyl-3-yl)-3-(1,3,4-thiadiazol-2-yl)urea] gave a half-inhibitory concentration (IC50) of 0.08 µM.

Compound `CC(C)CN(CC(C)C)c1ccc(-c2cc(F)ccc2C(=O)O)cc1NC(=O)Nc1ccc(F)cc1F` [Example 146, 3′-(3-(2,4-difluorophenyl)ureido)-4′-(diisobutylamino)-5-fluorobiphenyl-2-carboxylic acid] yielded an IC50 of 0.01 µM.

Consider `Cc1ccc(NC(=O)Nc2cc(-c3ccccc3-c3nnn[nH]3)ccc2N(CC(C)C)C(C)C)cc1` [Example 147, 1-(4-(isobutyl(isopropyl)amino)-2′-(1H-tetrazol-5-yl)biphenyl-3-yl)-3-p-tolylurea], for which the IC50 was determined as 0.01 µM.

`Cc1ccc(NC(=O)Nc2cc(-c3ccccc3C(=O)O)ccc2N(CC(C)C)C(C)C)cc1` [Example 148, 4′-(isobutyl(isopropyl)amino)-3′-(3-p-tolylureido)biphenyl-2-carboxylic acid] yielded an IC50 of 0.04 µM.

The compound `Cc1ccc(NC(=O)Nc2cc(-c3cc(F)ccc3C(=O)O)ccc2N(CC(C)C)C(C)C)cc1` [Example 149, 5-fluoro-4′-(isobutyl(isopropyl)amino)-3′-(3-p-tolylureido)biphenyl-2-carboxylic acid] registered an IC50 of 0.06 µM.

`Cc1ccc(NC(=O)Nc2cc(-c3cnccc3C(=O)O)ccc2N(CC(C)C)CC(C)C)cc1` [Example 151, 3-(4-(diisobutylamino)-3-(3-p-tolylureido)phenyl) isonicotinic acid] had an IC50 of 4.62 µM.

As for `Cc1ccc(NC(=O)Nc2cc(-c3ccoc3C(=O)O)ccc2N(CC(C)C)CC(C)C)cc1` [Example 152, 3-(4-(diisobutylamino)-3-(3-p-tolylureido)phenyl)furan-2-carboxylic acid], inhibition was half-maximal at 0.77 µM (IC50).

`CC(C)CN(c1ccc(-c2ccccc2-c2nnn[nH]2)cc1NC(=O)Nc1ccccc1F)C(C)C` [Example 153, 1-(2-fluorophenyl)-3-(4-(isobutyl (isopropyl)amino)-2′-(1H-tetrazol-5-yl)biphenyl-3-yl)urea] returned an IC50 of 0.00516 µM.

`CC(C)CN(c1ccc(-c2ccccc2C(=O)O)cc1NC(=O)Nc1ccccc1F)C(C)C` [Example 154, 3′-(3-(2-fluorophenyl)ureido)-4′-(isobutyl(isopropyl)amino)biphenyl-2-carboxylic acid] came in with an IC50 of 0.03 µM.

As to `CC(C)CN(c1ccc(-c2cc(F)ccc2C(=O)O)cc1NC(=O)Nc1ccccc1F)C(C)C` [Example 155, 5-fluoro-3′-(3-(2-fluorophenyl)ureido)-4′-(isobutyl(isopropyl)amino)biphenyl-2-carboxylic acid], the midpoint of inhibition, the IC50, lay at 0.04 µM.

Consider `CC(C)CN(c1ccc(-c2ccccc2-c2nnn[nH]2)cc1NC(=O)Nc1ccc(F)cc1F)C(C)C` [Example 156, 1-(2,4-difluorophenyl)-3-(4-(isobutyl (isopropyl)amino)-2′-(1H-tetrazol-5-yl)biphenyl-3-yl)urea], for which the IC50 came to 0.00745 µM.

The compound `CC(C)CN(c1ccc(-c2ccccc2C(=O)O)cc1NC(=O)Nc1ccc(F)cc1F)C(C)C` [Example 157, 3′-(3-(2,4-difluorophenyl)ureido)-4′-(isobutyl(isopropyl)amino)biphenyl-2-carboxylic acid] displayed an IC50 of 0.02 µM.

`CC(C)CN(c1ccc(-c2cc(F)ccc2C(=O)O)cc1NC(=O)Nc1ccc(F)cc1F)C(C)C` [Example 158, 3′-(3-(2,4-difluorophenyl)ureido)-5-fluoro-4′-(isobutyl(isopropyl)amino)biphenyl-2-carboxylic acid] displayed an IC50 of 0.03 µM.

In turn, `Cc1ccc(NC(=O)Nc2cc(-c3ccncc3C(=O)O)ccc2N(CC(C)C)CC(C)C)cc1` [Example 159, 4-(4-(diisobutylamino)-3-(3-p-tolylureido)phenyl) nicotinic acid] displayed an IC50 of 0.98 µM.

In turn, `COc1ccc(C(=O)O)c(-c2ccc(N(CC(C)C)CC(C)C)c(NC(=O)Nc3ccc(F)cc3F)c2)c1` [Example 160, 3′-(3-(2,4-difluorophenyl)ureido)-4′-(diisobutylamino)-5-methoxybiphenyl-2-carboxylic acid] showed an IC50 of 0.19 µM.

`CC(C)CN(c1ccc(-c2ccccc2-c2nnn[nH]2)cc1NC(=O)Nc1ccccc1C(F)(F)F)C1CCCCC1` [Example 161, 1-(4-(cyclohexyl(isobutyl)amino)-2′-(1H-tetrazol-5-yl)biphenyl-3-yl)-3-(2-(trifluoromethyl)phenyl)urea]: the IC50 stood at 0.24 µM.

As to `CC(C)CN(c1ccc(-c2ccccc2C(=O)O)cc1NC(=O)Nc1ccccc1C(F)(F)F)C1CCCCC1` [Example 162, 4′-(cyclohexyl (isobutyl)amino)-3′-(3-(2-(trifluoromethyl)phenyl)ureido)biphenyl-2-carboxylic acid], 1.27 µM corresponded to half-maximal inhibition (IC50).

Turning to `CC(C)CN(c1ccc(-c2cc(F)ccc2C(=O)O)cc1NC(=O)Nc1ccccc1C(F)(F)F)C1CCCCC1` [Example 163, 4′-(cyclohexyl (isobutyl)amino)-5-fluoro-3′-(3-(2-(trifluoromethyl)phenyl)ureido) biphenyl-2-carboxylic acid], the IC50 came to 1.03 µM.

`Cc1ccc(NC(=O)Nc2cc(C3=C(c4nnn[nH]4)CCC3)ccc2N(CC(C)C)CC(C)C)cc1` [Example 164, 1-(5-(2-(1H-tetrazol-5-yl)cyclopent-1-enyl)-2-(diisobutylamino)phenyl)-3-p-tolylurea] came in with an IC50 of 0.0054 µM.

For `CCCN(c1ccc(-c2ccccc2C(=O)O)cc1NC(=O)Nc1ccc(C)cc1)C1CCCC1` [Example 165, 4′-(cyclopentyl(propyl)amino)-3′-(3-p-tolylureido)biphenyl-2-carboxylic acid], the half-inhibitory concentration (IC50) stood at 0.01 µM.

Compound `CCCN(c1ccc(-c2cc(F)ccc2C(=O)O)cc1NC(=O)Nc1ccc(C)cc1)C1CCCC1` [Example 166, 4′-(cyclopentyl(propyl)amino)-5-fluoro-3′-(3-p-tolylureido) biphenyl-2-carboxylic acid] gave an IC50 of 0.02 µM.

As to `CCCN(c1ccc(-c2cc(F)ccc2C(=O)O)cc1NC(=O)Nc1ccccc1F)C1CCCC1` [Example 167, 4′-(cyclopentyl(propyl)amino)-5-fluoro-3′-(3-(2-fluorophenyl)ureido)biphenyl-2-carboxylic acid], the IC50 was 0.04 µM.

In turn, `CCCN(c1ccc(-c2ccccc2C(=O)O)cc1NC(=O)Nc1ccccc1F)C1CCCC1` [Example 168, 4′-(cyclopentyl(propyl)amino)-3′-(3-(2-fluorophenyl)ureido) biphenyl-2-carboxylic acid] displayed an IC50 of 0.03 µM.

As to `CCCN(c1ccc(-c2ccccc2-c2nnn[nH]2)cc1NC(=O)Nc1ccc(C)cc1)C1CCCC1` [Example 169, 1-(4-(cyclopentyl(propyl)amino)-2′-(1H-tetrazol-5-yl)biphenyl-3-yl)-3-p-tolylurea], the IC50 stood at 0.00455 µM.

Turning to `CCCN(c1ccc(-c2ccccc2-c2nnn[nH]2)cc1NC(=O)Nc1ccccc1F)C1CCCC1` [Example 170, 1-(4-(cyclopentyl(propyl)amino)-2′-(1H-tetrazol-5-yl)biphenyl-3-yl)-3-(2-fluorophenyl)urea], half-maximal inhibition (IC50) was put at 0.00568 µM.

Consider `Cc1ccc(NC(=O)Nc2cc(-c3cc(F)ccc3C(=O)O)ccc2N(CC(C)C)C2CCCC2)cc1` [Example 171, 4′-(cyclopentyl(isobutyl)amino)-5-fluoro-3′-(3-p-tolylureido)biphenyl-2-carboxylic acid], for which the midpoint of inhibition, the IC50, lay at 0.02 µM.

`Cc1ccc(NC(=O)Nc2cc(-c3ccccc3C(=O)O)ccc2N(CC(C)C)C2CCCC2)cc1` [Example 172, 4′-(cyclopentyl(isobutyl)amino)-3′-(3-p-tolylureido)biphenyl-2-carboxylic acid]: half-maximal inhibition (IC50) was put at 0.01 µM.

In turn, `CC(C)CN(c1ccc(-c2ccccc2C(=O)O)cc1NC(=O)Nc1ccccc1F)C1CCCC1` [Example 173, 4′-(cyclopentyl(isobutyl)amino)-3′-(3-(2-fluorophenyl)ureido) biphenyl-2-carboxylic acid] registered a concentration for half-maximal inhibition (IC50) of 0.01 µM.

In turn, `Cc1ccc(NC(=O)Nc2cc(-c3ccccc3-c3nnn[nH]3)ccc2N(CC(C)C)C2CCCC2)cc1` [Example 174, 1-(4-(cyclopentyl (isobutyl)amino)-2′-(1H-tetrazol-5-yl)biphenyl-3-yl)-3-p-tolylurea] yielded an IC50 of 0.00992 µM.

For `CC(C)CN(c1ccc(-c2ccccc2-c2nnn[nH]2)cc1NC(=O)Nc1ccccc1F)C1CCCC1` [Example 175, 1-(4-(cyclopentyl (isobutyl)amino)-2′-(1H-tetrazol-5-yl)biphenyl-3-yl)-3-(2-fluorophenyl)urea], half-maximal inhibition (IC50) was put at 0.00436 µM.

In the case of `CC(C)CN(c1ccc(-c2cc(F)ccc2C(=O)O)cc1NC(=O)Nc1ccccc1F)C1CCCC1` [Example 176, 4′-(cyclopentyl(isobutyl)amino)-5-fluoro-3′-(3-(2-fluorophenyl)ureido) biphenyl-2-carboxylic acid], 0.00786 µM corresponded to half-maximal inhibition (IC50).

As for `CCCCN(c1ccc(-c2ccccc2C(=O)O)cc1NC(=O)Nc1ccc(C)cc1)C1CCCCC1` [Example 177, 4′-(butyl(cyclohexyl)amino)-3′-(3-(p-tolyl)ureido)-[1,1′-biphenyl]-2-carboxylic acid], the IC50 stood at 0.00959 µM.

As for `CCCCN(c1ccc(-c2cc(F)ccc2C(=O)O)cc1NC(=O)Nc1ccc(C)cc1)C1CCCCC1` [Example 178, 4′-(butyl(cyclohexyl)amino)-5-fluoro-3′-(3-(p-tolyl)ureido)-[1,1′-biphenyl]-2-carboxylic acid], inhibition was half-maximal at 0.00549 µM (IC50).

Values taken from patent US9758492B2, “IDO inhibitors” (Bristol-Myers Squibb Company, priority 2013, dated 2017).
